Measured values reported in patent US9695155B2, “Herbicidal substituted pyrimidinyloxy benzene compounds” (E. I. DU PONT DE NEMOURS AND COMPANY, priority 2013, dated 2017).

Experiments:
[1] = system: soybean; experiment: Test E postemergence; assay type: in vivo, Glycine max
Method in brief: (§1)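 Test chemicals formulated in a non-phytotoxic solvent mixture containing a surfactant were applied preemergence to seeds in silt loam soil or postemergence to plants at the 1- to 4-leaf stage in potting mix. After 14 to 21 days in a greenhouse, injury was visually rated against controls on a 0-100 scale (0 = no effect, 100 = complete control).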

[2] = system: rice; experiment: Test C flooded paddy test; assay type: in vivo, Oryza sativa; conditions: Flood, scale 0 to 100 (0 no effect, 100 complete control), 13 to 15 days
Method in brief: (§2)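 Under a constant 3 cm flood, test compounds went directly into the paddy water. Following 13 to 15 days of greenhouse growth, treated species and controls were compared by eye.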

[3] = system: sedge, umbrella; experiment: Test C flooded paddy test; assay type: in vivo, Cyperus difformis; conditions: Flood, scale 0 to 100 (0 no effect, 100 complete control), 13 to 15 days
Method in brief: as §2

[4] = system: dayflower; experiment: Test E postemergence; assay type: in vivo, Commelina virginica
Method in brief: as §1

[5] = system: barnyardgrass; experiment: Test E postemergence; assay type: in vivo, Echinochloa crus-galli
Method in brief: as §1

[6] = system: waterhemp_RES1 (ALS & Triazine resistant common waterhemp); experiment: Test E postemergence; assay type: in vivo, Amaranthus rudis
Method in brief: as §1

[7] = system: waterhemp_RES2 (ALS & HPPD resistant common waterhemp); experiment: Test E postemergence; assay type: in vivo, Amaranthus rudis
Method in brief: as §1

[8] = system: Italian ryegrass; experiment: Test E postemergence; assay type: in vivo, Lolium multiflorum
Method in brief: as §1

[9] = system: barnyardgrass; experiment: Test C flooded paddy test; assay type: in vivo, Echinochloa crus-galli; conditions: Flood, scale 0 to 100 (0 no effect, 100 complete control), 13 to 15 days
Method in brief: as §2

[10] = system: dayflower; experiment: Test E preemergence; assay type: in vivo, Commelina virginica; conditions: for Dayflower, VA plant response rating: scale 0 to 100 (0 no effect, 100 complete control); for Plant response rating, Dayflower, VA: scale 0 to 100, 0 no effect, 100 complete control
Method in brief: as §1

[11] = system: ragweed; experiment: Test E preemergence; assay type: in vivo, Ambrosia elatior; conditions: for Ragweed plant response rating: scale 0 to 100 (0 no effect, 100 complete control); for Plant response rating, Ragweed: scale 0 to 100, 0 no effect, 100 complete control
Method in brief: as §1

[12] = system: corn; experiment: Test E preemergence; assay type: in vivo, Zea mays; conditions: for Corn plant response rating: scale 0 to 100 (0 no effect, 100 complete control); for Plant response rating, Corn: scale 0 to 100, 0 no effect, 100 complete control
Method in brief: as §1

[13] = system: velvetleaf; experiment: Test E preemergence; assay type: in vivo, Abutilon theophrasti; conditions: for Velvetleaf plant response rating: scale 0 to 100 (0 no effect, 100 complete control); for Plant response rating, Velvetleaf: scale 0 to 100, 0 no effect, 100 complete control
Method in brief: as §1

[14] = system: yellow nutsedge; experiment: Test E preemergence; assay type: in vivo, Cyperus esculentus; conditions: for Nutsedge, Yellow plant response rating: scale 0 to 100 (0 no effect, 100 complete control); for Plant response rating, Nutsedge, Yellow: scale 0 to 100, 0 no effect, 100 complete control
Method in brief: as §1

[15] = system: fall panicum; experiment: Test E preemergence; assay type: in vivo, Panicum dichotomiflorum; conditions: for Panicum, Fall plant response rating: scale 0 to 100 (0 no effect, 100 complete control); for Plant response rating, Panicum, Fall: scale 0 to 100, 0 no effect, 100 complete control
Method in brief: as §1

[16] = system: johnsongrass; experiment: Test E preemergence; assay type: in vivo, Sorghum halepense; conditions: for Johnsongrass plant response rating: scale 0 to 100 (0 no effect, 100 complete control); for Plant response rating, Johnsongrass: scale 0 to 100, 0 no effect, 100 complete control
Method in brief: as §1

[17] = system: field bindweed; experiment: Test E preemergence; assay type: in vivo, Convolvulus arvensis; conditions: for Field Bindweed plant response rating: scale 0 to 100 (0 no effect, 100 complete control); for Plant response rating, Field Bindweed: scale 0 to 100, 0 no effect, 100 complete control
Method in brief: as §1

[18] = system: soybean; experiment: Test E preemergence; assay type: in vivo, Glycine max; conditions: for Soybean plant response rating: scale 0 to 100 (0 no effect, 100 complete control); for Plant response rating, Soybean: scale 0 to 100, 0 no effect, 100 complete control
Method in brief: as §1

[19] = Postemergence, 31 g ai/ha, scale 0 to 100
[20] = Postemergence, 62 g ai/ha, scale 0 to 100
[21] = Postemergence, 125 g ai/ha, scale 0 to 100
[22] = postemergence, 8 g ai/ha, scale 0 to 100, 0 no effect, 100 complete control
[23] = postemergence, 16 g ai/ha, scale 0 to 100, 0 no effect, 100 complete control

## FC(F)(F)c1cnn(-c2c(Br)cccc2Oc2ncc(Cl)cn2)c1 [Compound 191]
[1]; [19]
  Plant response rating, Soybean: 60
[1]; [20]
  Plant response rating, Soybean: 50
[1]; [21]
  Plant response rating, Soybean: 95
[1]; [22]
  Plant response rating, Soybean: 20
[1]; [23]
  Plant response rating, Soybean: 30
[2]; 31 g ai/ha
  Plant response rating, Rice: 0
[2]; 62 g ai/ha
  Plant response rating, Rice: 0
[2]; 125 g ai/ha
  Plant response rating, Rice: 0
[2]; 250 g ai/ha
  Plant response rating, Rice: 0
[3]; 31 g ai/ha
  Plant response rating, Sedge, Umbrella: 40
[3]; 62 g ai/ha
  Plant response rating, Sedge, Umbrella: 60
[3]; 125 g ai/ha
  Plant response rating, Sedge, Umbrella: 85
[3]; 250 g ai/ha
  Plant response rating, Sedge, Umbrella: 98
[4]; [19]
  Plant response rating, Dayflower, VA: 5
[4]; [20]
  Plant response rating, Dayflower, VA: 10
[4]; [21]
  Plant response rating, Dayflower, VA: 10
[4]; [22]
  Plant response rating, Dayflower, VA: 0
[4]; [23]
  Plant response rating, Dayflower, VA: 0
[5]; [19]
  Plant response rating, Barnyardgrass: 0
[5]; [20]
  Plant response rating, Barnyardgrass: 0
[5]; [21]
  Plant response rating, Barnyardgrass: 0
[5]; [22]
  Plant response rating, Barnyardgrass: 0
[5]; [23]
  Plant response rating, Barnyardgrass: 0
[6]; [19]
  Plant response rating, Waterhemp_RES1: 80
[6]; [20]
  Plant response rating, Waterhemp_RES1: 90
[6]; [21]
  Plant response rating, Waterhemp_RES1: 95
[6]; [22]
  Plant response rating, Waterhemp_RES1: 50
[6]; [23]
  Plant response rating, Waterhemp_RES1: 70
[7]; [19]
  Plant response rating, Waterhemp_RES2: 95
[7]; [20]
  Plant response rating, Waterhemp_RES2: 95
[7]; [21]
  Plant response rating, Waterhemp_RES2: 100
[7]; [23]
  Plant response rating, Waterhemp_RES2: 90
[8]; [19]
  Plant response rating, Ryegrass, Italian: 0
[8]; [20]
  Plant response rating, Ryegrass, Italian: 0
[8]; [21]
  Plant response rating, Ryegrass, Italian: 0
[8]; [22]
  Plant response rating, Ryegrass, Italian: 0
[8]; [23]
  Plant response rating, Ryegrass, Italian: 0
[9]; 31 g ai/ha
  Plant response rating, Barnyardgrass: 0
[9]; 62 g ai/ha
  Plant response rating, Barnyardgrass: 0
[9]; 125 g ai/ha
  Plant response rating, Barnyardgrass: 0
[9]; 250 g ai/ha
  Plant response rating, Barnyardgrass: 20

## N#Cc1cccc(Oc2ncc(Cl)cn2)c1-n1cc(Cl)cn1 [Compound 72]
[10]; 16 g ai/ha
  Dayflower, VA plant response rating: 0
[10]; 31 g ai/ha
  Dayflower, VA plant response rating: 0
[10]; 62 g ai/ha
  Dayflower, VA plant response rating: 35
[10]; 125 g ai/ha
  Plant response rating, Dayflower, VA: 65
[10]; 250 g ai/ha
  Plant response rating, Dayflower, VA: 95
[1]; [20]
  Plant response rating, Soybean: 95
[1]; [21]
  Plant response rating, Soybean: 95
[11]; 16 g ai/ha
  Ragweed plant response rating: 0
[11]; 31 g ai/ha
  Ragweed plant response rating: 0
[11]; 62 g ai/ha
  Ragweed plant response rating: 5
[11]; 125 g ai/ha
  Plant response rating, Ragweed: 50
[11]; 250 g ai/ha
  Plant response rating, Ragweed: 95
[12]; 16 g ai/ha
  Corn plant response rating: 0
[12]; 31 g ai/ha
  Corn plant response rating: 0
[12]; 62 g ai/ha
  Corn plant response rating: 0
[12]; 125 g ai/ha
  Plant response rating, Corn: 0
[12]; 250 g ai/ha
  Plant response rating, Corn: 0
[4]; [20]
  Plant response rating, Dayflower, VA: 50
[4]; [21]
  Plant response rating, Dayflower, VA: 60
[13]; 16 g ai/ha
  Velvetleaf plant response rating: 0
[13]; 31 g ai/ha
  Velvetleaf plant response rating: 0
[13]; 62 g ai/ha
  Velvetleaf plant response rating: 40
[13]; 125 g ai/ha
  Plant response rating, Velvetleaf: 65
[13]; 250 g ai/ha
  Plant response rating, Velvetleaf: 100
[14]; 16 g ai/ha
  Nutsedge, Yellow plant response rating: 0
[14]; 31 g ai/ha
  Nutsedge, Yellow plant response rating: 0
[14]; 62 g ai/ha
  Nutsedge, Yellow plant response rating: 0
[14]; 125 g ai/ha
  Plant response rating, Nutsedge, Yellow: 25
[14]; 250 g ai/ha
  Plant response rating, Nutsedge, Yellow: 50
[15]; 16 g ai/ha
  Panicum, Fall plant response rating: 0
[15]; 31 g ai/ha
  Panicum, Fall plant response rating: 65
[15]; 62 g ai/ha
  Panicum, Fall plant response rating: 98
[15]; 125 g ai/ha
  Plant response rating, Panicum, Fall: 100
[15]; 250 g ai/ha
  Plant response rating, Panicum, Fall: 100
[5]; [20]
  Plant response rating, Barnyardgrass: 0
[5]; [21]
  Plant response rating, Barnyardgrass: 10
[6]; [20]
  Plant response rating, Waterhemp_RES1: 75
[6]; [21]
  Plant response rating, Waterhemp_RES1: 95
[7]; [20]
  Plant response rating, Waterhemp_RES2: 80
[7]; [21]
  Plant response rating, Waterhemp_RES2: 90
[16]; 16 g ai/ha
  Johnsongrass plant response rating: 0
[16]; 31 g ai/ha
  Johnsongrass plant response rating: 0
[16]; 62 g ai/ha
  Johnsongrass plant response rating: 40
[16]; 125 g ai/ha
  Plant response rating, Johnsongrass: 95
[16]; 250 g ai/ha
  Plant response rating, Johnsongrass: 98
[17]; 16 g ai/ha
  Field Bindweed plant response rating: 0
[17]; 31 g ai/ha
  Field Bindweed plant response rating: 5
[17]; 62 g ai/ha
  Field Bindweed plant response rating: 10
[17]; 125 g ai/ha
  Plant response rating, Field Bindweed: 60
[17]; 250 g ai/ha
  Plant response rating, Field Bindweed: 95
[18]; 16 g ai/ha
  Soybean plant response rating: 0
[18]; 31 g ai/ha
  Soybean plant response rating: 10
[18]; 62 g ai/ha
  Soybean plant response rating: 25
[18]; 125 g ai/ha
  Plant response rating, Soybean: 70
[18]; 250 g ai/ha
  Plant response rating, Soybean: 90
[8]; [20]
  Plant response rating, Ryegrass, Italian: 0
[8]; [21]
  Plant response rating, Ryegrass, Italian: 5
